Experimental data published in US5547972A, “Therapeutic agents useful for treating inflammatory diseases” (The Boots Company PLC, priority 1991, dated 1996).
Where a name gives a salt, the structure may show the parent alone. Read-outs that look alike come from different tables or passages of the source.

Experiments:
[1] = tested on: Carrageenan-induced rat paw oedema; assay: Test B: Carrageenan-induced rat paw oedema test; type: in vivo, rat (female); conditions: inhibition of paw oedema, 1 h before carrageenan, 3 h after injection; for inhibition in vivo at 100 mg/kg: Rattus norvegicus, po, 3 h; for Test B % inhibition at 100 mg/kg: oral
Experimental: Carrageenan-induced rat paw oedema test
Female rats, weight range 125-150 g were fasted overnight. One of the hind legs of each animal was marked with a line at the connection between the cuboid/navicular and calcaneus/talus bones. Groups of six rats were orally dosed at 10 ml/kg, in random order, with a given dose of the test compound given as a solution or suspension in 10% (w/v) aqueous acacia solution.
One hour after dosing, 0.1 ml of 1% (w/v) sterile carrageenan λ in normal saline was injected deeply into the plantar surface of the marked hind foot of each rat. The volume of the foot (up to the marked line) was measured immediately after injection using duplicate water displacement readings. Three hours after injection the foot volume was measured again and the percentage increase in foot volume relative to the initial reading was calculated.
The increase in foot volume (i.e. the degree of oedema) in drug treated animals when compared with that in the drug untreated control gave the degree of inhibition of paw oedema by the drug.
Compounds were considered to be active in this test if they produced a 20% or greater inhibition of paw oedema in at least two out of three tests after oral dosing at 100 mg/kg. Statistical significance was assessed using the Student't test for single dose studies and Dunnett's test for multiple dose studies. More advantageous compounds were active in both Tests A and B,

[2] = tested on: Zymosan Stimulated Macrophaqes; assay: Test A: Inhibition of Arachidonic Acid Release from Zymosan Stimulated Macrophages; type: cell-based, mouse (female MF1); conditions: read-out: Test A IC50
Experimental: Inhibition of Arachidonic Acid Release from Zymosan Stimulated Macrophaqes
Female MF1 mice (weighing 20 to 25 g) were killed using a rising concentration of CO2. The mice were laid on their backs and the abdomens wiped with 70% alcohol. The skin was pulled back, exposing the peritoneal wall. Medium A (5 ml) (see below) was injected into the peritoneal cavity of each mouse followed by approximately 1 ml of air using a 20 ml syringe and a 21 G×40 mm needle in order to form a suspension of macrophage cells. The medium and cells were then removed using a 19 G×40 mm needle. The resulting suspension was returned to a sterile beaker kept on ice. The extracts from all the mice were pooled and this pooled cell suspension was counted using a Coulter counter and adjusted to a final cell count of 1-1.3×10^6 cells/ml prior to labelling with [^3 H]-arachidonic acid. Typically five mice provided sufficient cells for each multiwell plate.
Sufficient [^3 H]-arachidonic acid in ethanol to give a final concentration of 1.6 μCi/ml (equivalent to 40 μCi/plate) was blown to dryness under nitrogen. The arachidonic acid was then resuspended in 1 or 2 ml of the cell suspension which was then mixed with the remainder of the cell suspension in a centrifuge bottle. The labelled cell suspension was then plated out into sterile plastic 96 flat-bottomed well plates (250 μl per well) and incubated overnight at 37° C. in a moist atmosphere of 5% CO2, 95% air.
The following day, non-adherent cells were removed by washing 3 times with sterile phosphate buffered saline (PBS). The adherent peritoneal macrophages were then cultured for a further 24 hours in the presence or absence of drugs, in medium B (see below) at 37° in a 5% CO2 atmosphere in order to measure the effects of drugs on the spontaneous release of arachidonic acid in the absence of stimulus. After this incubation, supernatants were removed to give media 1 and stored in sealed multi-well plates at 4° C. prior to scintillation counting. Drugs which potentiated spontaneous release of arachidonic acid (125% of controls) were deemed to be toxic at the concentration at which this phenomenon occurred. The supernatants were replaced by fresh medium C containing fresh drug and a stimulus. Three drugs were tested at six concentrations (100, 50, 20, 10, 5 and 1 μM) in replicates of four on each plate. The other wells contained controls consisting of a positive control (e.g. dexamethasone), medium (B) only and medium C only.
Incubation was then continued for a further 5 hours, whereupon the supernatants were collected to give media 2 and the adherent cells washed with PBS. The cells were then lysed with 100 μl of 0.1% TRITON® X100 in a 0.1% solution of bovine serum albumin in 0.9% saline and mechanically disrupted to give cell lysates. These supernatants (media 2) and cell lysates (Cells) were also stored in sealed multi-well plates at 4° C. prior to scintillation counting. 200 μl aliquots of media, or 100 μl aliquots of cells were counted using 2 ml of OPTIPHASE "HIGH SAFE" (Trademark of LKB) as scintillant.
The percentage of arachidonic acid released was calculated using the mean values for each group of 4 wells in the following equation. [formula] cpm=courts per minute
The value for the arachidonic acid release in the absence of stimulus (spontaneous, cpm of media 2) from cells which had been exposed to neither stimulus nor drug was subtracted from all equivalent values (cpm media 2, stimulated with or without drug) to give the net stimulated release. The percentage inhibition of arachidonic acid release caused by a drug may then be calculated using the following equation. [formula]
Compounds of formula I were tested at six concentrations (100, 50, 20, 10, 5 and 1 μM) and IC50 values calculated. Compounds with IC50 values<100 μM are considered to be active. Advantageous compounds have an IC50 value <50 μM.
Medium A (for peritoneal lavage) […]

[3] = Mus musculus, Macrophage, 5 h, inhibition of arachidonic acid release, six concentrations (100, 50, 20, 10, 5 and 1 μM), 5 h with zymosan
[4] = inhibition of arachidonic acid release, six concentrations (100, 50, 20, 10, 5 and 1 μM), 5 h with zymosan

Row | SMILES | IC50 [2, 3] [µM] | inhibition in vivo at 100 mg/kg [1] [%] | also measured
1 | Cc1cn(CCCNCc2ccc(Cl)cc2)c(Cc2ccccc2)n1 [Example 47] |  |  | Test B % inhibition at 100 mg/kg [1]: 35%; IC50 [2, 4]: 7 µM
2 | CCCCOc1ccc(C(C)NCCCn2ccnc2)cc1 (centres unmarked) [Example 22, N-[1-(4-Butoxyphenyl)ethyl]-3-(imidazol-1-yl)propylamine dioxalate] | 21 | 17 | 
3 | CC(NCCCn1ccnc1)c1cccc(Cl)c1 (centres unmarked) [Example 7, N-[1-(3-Chlorophenyl)ethyl]-3-(imidazol-1-yl)propylamine] | 94 | 48 | 
4 | CC(NCC(C)(C)Cn1ccnc1)c1ccc(Cl)cc1 (centres unmarked) [Example 58, N-[1-(4-chlorophenyl)ethyl]-3-(imidazol-1-yl)-2,2-dimethylpropylamine] | 55 | 79 | 
5 | CC(C)(NCCCn1ccnc1)c1ccc(Cl)cc1 [Example 59, N-[1-(4-chlorophenyl)-1-methylethyl]-3-(imidazol-1-yl)propylamine] |  | 65 | IC50 ([2]; inhibition of arachidonic acid release, six concentrations (100, 50, 20, 10, 5 and 1 μM), 5 h with zymosan, listed as 68 (1)): 35 µM; IC50 [2, 4]: 35 µM
6 | CC(NCCCn1ccnc1)c1ccccc1Cl (centres unmarked) [Example 8, N-[1-(2-Chlorophenyl)ethyl]-3-(imidazol-1-yl)propylamine] | 92 | 55 | 
7 | CC(NCCCCn1ccnc1)c1ccc(Cl)cc1 (centres unmarked) [Example 26, N-[1-(4-Chlorophenyl)ethyl]-4-(imidazol-1-yl)butylamine] | 56 | 40 | 
8 | Clc1ccc(CNCCCn2ccnc2)c(Cl)c1 [Example 41, N-(2,4-Dichlorobenzyl)-3-(imidazol-1-yl)propylamine] | 58 | 29 | 
9 | CC(NCCCn1ccnc1)c1ccc(Oc2ccccc2)cc1 (centres unmarked) [Example 16, 3-(Imidazol-1-yl)-N-[1-(4-phenoxyphenyl)ethyl]propylamine] |  | 9 | IC50 ([2]; Mus musculus, Macrophage, 5 h): 8 µM
10 | CC(C)(NCCCn1ccnc1)c1ccc(Cl)cc1.Cl.Cl [68 (2), N-[1-(4-chlorophenyl)-1-methylethyl]-3-(imidazol-1-yl)propylamine dihydrochloride] |  |  | Test B % inhibition at 100 mg/kg [1]: 70%; IC50 ([2]; inhibition of arachidonic acid release, six concentrations (100, 50, 20, 10, 5 and 1 μM), 5 h with zymosan, dihydrochloride): 43 µM
11 | Cc1nccn1CCCNC(C)c1ccc(Cl)cc1 (centres unmarked) [Example 52, N-[1-(4-chlorophenyl)ethyl]-3-(2-methylimidazol-1-yl)propylamine] |  |  | Test B % inhibition at 100 mg/kg [1]: 27%
12 | CC(C)(NCCCn1cnc(CO)c1)c1ccc(-c2ccccc2)cc1 [Example 85, 1-{3-[1-(4-biphenylyl)-1-methylethylamino]propyl}imidazol-4-yl-methanol] | 45 | 0 | 
13 | Cc1nccn1CCCNCc1ccc(Cl)cc1 [Example 43, N-(4-Chlorobenzyl)-3-(2-methylimidazol-1-yl)propylamine] | 49 | 33 | 
14 | CCC(c1ccc(Cl)cc1)N(C)CCCn1ccnc1 (centres unmarked) [Example 91, N-[1-(4-chlorophenyl)propyl]-3-(imidazol-1-yl)-N-methylpropylamine] | 62 | 58 | 

Continued by falling IC50 [2, 3], values first:

Row | IC50 [2, 3] [µM] | SMILES | inhibition in vivo at 100 mg/kg [1] [%] | also measured
15 | 45 | COC(=O)c1ccc(CNCCCn2ccnc2C)cc1 [Example 49, methyl 4-[3-(2-methylimidazol-1-yl)propylaminomethyl]benzoate] | 0 | 
16 | 40 | CC(C)(NCCCCn1ccnc1)c1ccc(Cl)cc1 [Example 89, N-[1-(4-chlorophenyl)-1-methylethyl]-4-(imidazol-1-yl)butylamine] | 51 | 
17 | 31 | COc1cc(C)c(CNCCCn2ccnc2)c(C)c1 [Example 50, 3-(imidazol-1-yl)-N-(4-methoxy-2,6-dimethylbenzyl)propylamine dihydrochloride] | 0 | 
18 | 26 | CCc1nccn1CCCNCc1ccc(Cl)cc1 [Example 72, N-(4-Chlorobenzyl)-3-(2-ethylimidazol-1-yl)propylamine] | 18 | 
19 | 22 | CC(NCCCn1ccnc1)c1ccc(Cl)c(C(F)(F)F)c1 (centres unmarked) [Example 9, N-[1-(4-Chloro-3-trifluoromethylphenyl)ethyl]-3-(imidazol-1-yl)propylamine] | 78 | 
20 | 20 | CCOC(=O)c1c(C)ncn1CCCNC(C)(C)c1ccc(Cl)cc1 [Example 78, Ethyl 1-{3-[1-(4-chlorophenyl)-1-methylethylamino]propyl)-4-methylimidazole-5-carboxylate] | 7 | 
21 | 18 | Clc1ccc(CNCCCn2cnc(Cl)c2Cl)cc1 [Example 64, N-(4-chlorobenzyl)-3-(4,5-dichloroimidazol-1-yl)propylamine dihydrochloride] | 30 | 
22 | 16 | CC(NCCCn1ccnc1)c1ccc(Cl)cc1 (single isomer, unassigned; (+)) [Example 56, (+) N-[1-(4-Chlorophenyl)ethyl]-3-(imidazol-1-yl)propylamine dihydrochloride] | 57 | 
23 | 13 | CC(NCCCn1ccnc1)c1ccc(Cl)c(Cl)c1Cl (centres unmarked) [Example 13, N-[1-(2,3,4-Trichlorophenyl)ethyl]-3-(imidazol-1-yl)propylamine dihydrochloride] | 70 | 
24 | 13 | Cc1nc(C)n(CCCNC(C)c2ccc(Cl)cc2)c1C (centres unmarked) [Example 66, N-[1-(4-Chlorophenyl)ethyl]-3-(2,4,5-trimethylimidazol-1-yl)propylamine] | 13 | 
25 | 11 | Clc1ccc(C(NCCCn2ccnc2)c2ccccc2)cc1 (stereo not drawn) [Example 28, N-[α-(4-chlorophenyl)benzyl]-3-(imidazol-1-yl)propylamine] | 48 | 
26 | 10 | c1ccc(Oc2ccc(CNCCCn3ccnc3)cc2)cc1 [Example 39, 3-(Imidazol-1-yl)-N-(4-phenoxybenzyl)propylamine] | 35 | 
27 | 10 | Cc1cn(CCCNC(C)c2ccc(Cl)cc2)c(C)n1 (centres unmarked) [Example 31, N-[1-(4-chlorophenyl)ethyl]-3-(2,4-dimethylimidazol-1-yl)propylamine dihydrochloride] | 25 | 
28 | 8 | Cc1ncn(CCCNCc2ccc(Cl)cc2)c1C [Example 45, N-(4-Chlorobenzyl)-3-(4,5-dimethylimidazol-1-yl)propylamine dihydrochloride] | 6 | 
